From patent US7132458B2, “Oxidized carotenoid fractions and ketoaldehyde useful as cell-differentiation inducers, cytostatic agents, and anti-tumor agents” (Chemaphor Inc., priority 1994, dated 2006)

Key:
IMR32 [1] = experiment: Differentiating properties of combinations of β-Car^OX and retinoic acid; type: cell-based, human; details: Retinoic Acid L 1–2.5 μM alone
Description: (§1) Given the cell differentiation-inducing properties of β-Car^OX and some of its fractions, it is instructive not only to compare the effects obtained with those of the better known all-trans retinoic acid, which is recognized as being able to regulate differentiation capacities of several mammalian cell types, but to determine also the effect upon cells when β-Car^OX and retinoic acid are used together. Table 4 presents qualitative data illustrating the results obtained with various combinations of β-Car^OX and retinoic acid in both the NB4 and IMR32 cell lines.
(§2) When an equipotent concentration of β-Car^OX is combined with retinoic acid, their differentiation-inducing effects cancel out. However, when the concentration of either one of them is increased relative to the other, differentiation-induction is restored.

NB4 [2] = experiment: as above; type: cell-based, human; details: Retinoic Acid L 0.1–1 μM alone
Description: as §1, §2

K562 = experiment: Cytostatic effect (Hoechst 33258 DNA fluorescence, 3 days); type: cell-based, human; design: key: +: activity higher; 0: similar to; −: less than the activity of β-Car^OX; details: ranked relative to β-Car^OX across six concentrations 2.5-22.5 μM
Method: (§3) Fractions were tested for cytostatic properties and ability to induce differentiation. The results were compared with those obtained for β-Car^OX, which served as a reference indicating whether or not fractionation was leading to fractions with enhanced activity. Retinoic acid and/or β-carotene were used as controls in some of the cell lines tested in order to differentiate their effects from that of β-Car^OX. All of the samples were tested in identical ‘by weight’ concentrations. Comparisons have been done on a pseudo molarity scale by dividing the weight of sample used by the molecular weight of β-carotene (537 Da). Fractions were tested in human colon carcinoma (HCT116), human neuroblastoma (IMR32), human acute promyelocytic leukemia (NB4), human chronic myelogenous leukemia (K562), and mouse keratinocytes (Balb/c/MK).
(§4) Fractions have been ranked relative to β-Car^OX by dividing each growth inhibition value at each sample concentration by the corresponding β-Car^OX value and determining qualitatively by inspection the trends across the six sample concentrations. Activities of fractions are expressed as “+”, “0”, and “−”, indicating activity higher, similar to, and less than the activity of β-Car^OX, respectively.

HCT116 = experiment: as above; type: cell-based, human; design: key: +: activity higher; 0: similar to; −: less than the activity of β-Car^OX; details: ranked relative to β-Car^OX across six concentrations 2.5-45 μM
Method: as §3, §4

IMR32 [3] = experiment: as above; type: cell-based, human; design: key: +: activity higher; 0: similar to; −: less than the activity of β-Car^OX; details: ranked relative to β-Car^OX across six concentrations 2.5-45 μM
Method: as §3, §4

NB4 [4] = experiment: as above; type: cell-based, human; design: key: +: activity higher; 0: similar to; −: less than the activity of β-Car^OX; details: ranked relative to β-Car^OX across six concentrations 2.5-22.5 μM
Method: as §3, §4

NB4 cells = experiment: Cell cycling, flow cytometry of intracellular DNA content; type: cell-based, human; details: synchronized populations, controls 22 hours
Method: There is no G1 block. This effect is due to a lengthening of the duration of the cell cycle. […] The data were acquired using flow cytometry analysis of the individual intracellular DNA content of cells from synchronized populations. Sampling was done every 5 hours over a period of 48 hours.

IMR32 cell line = experiment: Expression of NF and GFAP markers; type: cell-based, human; details: β-Car^OX 0 μM
Description: Expression of glial fibrillary acidic protein, GFAP, is a useful marker indicating differentiation towards glial cells.

Balb/c/MK keratinocytes = experiment: Expression of cytokeratins in keratinocytes; type: cell-based, mouse; details: Ca^++ 1.8 mM, Retinoic Acid 3 μM, β-Car^OX 30 μM; for IA, intensity of expression per cell, Cytokeratins 1 and 10: control 4.4; for IA, intensity of expression per cell, panel (CAMON) of Cytokeratins: control 60.7; for A, percentage of immunopositive cells expressing Cytokeratins 1 and 10: control 90.3; for A, percentage of immunopositive cells expressing a panel (CAMON) of Cytokeratins: control 93.7
Description: Qualitative data were provided in the first phase of research for the differentiation-inducing effect of β-Car^OX upon the mouse Balb/c/MK keratinocyte cell line.
Cytokeratins 1 and 10 are high molecular weight proteins which are increasingly expressed with the progression of the differentiation program. […] Cells cultured in low calcium media remain proliferative. […] The apparently smaller effect of β-Car^OX compared to retinoic acid is due not to lower potency but to a delayed action and similar results are obtained using a panel of other cytokeratins (Cytokeratin coctail from CAMON containing cytokeratins 1–8, 10, 13, 14, 15, 16, 19).

NB4 cell line = experiment: Expression of differentiation markers CD33, CD11b, CD15 at five days; type: cell-based, human; details: combined treatments 1 μM RA and 7.5 μM β-Car^OX or fraction
Method: The cell differentiation-inducing effects of the fractions were determined qualitatively by observation of morphological changes in cell lines and quantitatively by measuring the expression of characteristic protein markers using monoclonal antibodies and flow cytometry. […] Many differentiation markers are expressed transiently during the differentiation program. In the NB4 cell line, protein CD33 is associated with early stages of differentiation, followed by protein CD11b, an intermediate marker, and eventually by protein CD15, an advanced differentiation marker. Enhanced differentiation therefore will be characterized by a decrease in the expression and intensity of the CD33 marker and an increase in expression and intensity of the CD15 marker.

DA-3 cell line = experiment: Viability (MTT test), melphalan with β-Car^OX; type: cell-based; details: Mus musculus
Description: The benefit of the cellular GSH-lowering effect is illustrated by what happens to the viability of DA-3 cells, using the MTT test, treated with both β-Car^OX and melphalan, a classical anticancer agent.

CC1=C(/C=C/C(C)=C/C=C/C(C)=C/C(=O)O)C(C)(C)CCC1 [All trans Retinoic Acid]
Differentiation (IMR32 [1]): yes | Differentiation (NB4 [2]): yes | Cytostatic Effect On Cell Lines, K562 (K562): 0 | Cytostatic Effect On Cell Lines, HCT116 (HCT116): − | Cytostatic Effect On Cell Lines, IMR32 (IMR32 [3]): + | Cytostatic Effect On Cell Lines, NB4 (NB4 [4]): 0 | duration of the cell cycle (NB4 cells): 18 h | GFAP % (IMR32 cell line; RA 1.0 μM): 94.4% | GFAP intensity (IMR32 cell line; RA 1.0 μM): 18.4 | NF % (IMR32 cell line; RA 1.0 μM): 96.4% | NF intensity (IMR32 cell line; RA 1.0 μM): 14.2 | GFAP % (IMR32 cell line; RA 2.5 μM): 90.5% | GFAP intensity (IMR32 cell line; RA 2.5 μM): 6.1 | NF % (IMR32 cell line; RA 2.5 μM): 97.2% | NF intensity (IMR32 cell line; RA 2.5 μM): 11.9 | GFAP % (IMR32 cell line; RA 5.0 μM): 87.5% | GFAP intensity (IMR32 cell line; RA 5.0 μM): 5.2 | NF % (IMR32 cell line; RA 5.0 μM): 95.5% | NF intensity (IMR32 cell line; RA 5.0 μM): 8.4 | GFAP % (IMR32 cell line; RA 10.0 μM): 83.1% | GFAP intensity (IMR32 cell line; RA 10.0 μM): 4.0 | NF % (IMR32 cell line; RA 10.0 μM): 92.0% | NF intensity (IMR32 cell line; RA 10.0 μM): 7.9 | IA, intensity of expression per cell, Cytokeratins 1 and 10 (Balb/c/MK keratinocytes): 15.4 arbitrary units | IA, intensity of expression per cell, panel (CAMON) of Cytokeratins (Balb/c/MK keratinocytes): 129.8 arbitrary units | A, percentage of immunopositive cells expressing Cytokeratins 1 and 10 (Balb/c/MK keratinocytes): 94.5 | A, percentage of immunopositive cells expressing a panel (CAMON) of Cytokeratins (Balb/c/MK keratinocytes): 94.3 | CD11b A, percentage of immunopositive cells (NB4 cell line): 71.9 | CD11b IA, average intensity of marker expression per cell (NB4 cell line): 2.6 arbitrary units | CD15 A, percentage of immunopositive cells (NB4 cell line): 73.1 | CD15 IA, average intensity of marker expression per cell (NB4 cell line): 73.1 arbitrary units | CD33 A, percentage of immunopositive cells (NB4 cell line): 87.1 | CD33 IA, average intensity of marker expression per cell (NB4 cell line): 1.6 arbitrary units

[Ca+2] [Ca^++]
IA, intensity of expression per cell, Cytokeratins 1 and 10 (Balb/c/MK keratinocytes): 13.8 arbitrary units | IA, intensity of expression per cell, panel (CAMON) of Cytokeratins (Balb/c/MK keratinocytes): 87.2 arbitrary units | A, percentage of immunopositive cells expressing Cytokeratins 1 and 10 (Balb/c/MK keratinocytes): 96.5 | A, percentage of immunopositive cells expressing a panel (CAMON) of Cytokeratins (Balb/c/MK keratinocytes): 97.6

N[C@@H](Cc1ccc(N(CCCl)CCCl)cc1)C(=O)O [Melphalan]
IC50 (DA-3 cell line; DA-3, in presence of β-Car^OX 5 μM): 40 µM | IC50 (DA-3 cell line; DA-3, in presence of β-Car^OX 7.5 μM): 44 µM | IC50 (DA-3 cell line; DA-3, in presence of β-Car^OX 10 μM): 6.6 µM | IC50 (DA-3 cell line; DA-3, in presence of β-Car^OX 20 μM): 6.8 µM | IC50 (DA-3 cell line; DA-3, β-Car^OX 0 μM): 100 µM

CC1=C(/C=C/C(C)=C/C=C/C(C)=C/C=C/C=C(C)/C=C/C=C(C)/C=C/C2=C(C)CCCC2(C)C)C(C)(C)CCC1 [β-Carotene]
Cytostatic Effect On Cell Lines, K562 (K562): − | Cytostatic Effect On Cell Lines, HCT116 (HCT116): − | Cytostatic Effect On Cell Lines, IMR32 (IMR32 [3]): 0 | Cytostatic Effect On Cell Lines, NB4 (NB4 [4]): −
